Data set [1] has as its system Leishmania donovani. Particulars: read-out: in vitro IC50; cited from earlier work.
In data set [2] the test system is T. brucei. Particulars: read-out: in vitro IC50; cited from earlier work.
Data set [3] has as its system T. cuzi. Particulars: read-out: in vitro IC50; cited from earlier work.
Data set [4] has as its system P. falciparum. Particulars: P. falciparum in vitro, in words; cited from earlier work.
For data set [5], the system named is P. falciparum strain D6. Description: SYBR Green growth inhibition assay, P. falciparum D6. Particulars: read-out: IC50 D6. In kind it is cell-based, Plasmodium falciparum. The method, then: (§1) The in vitro activity of each compound in the aminoguanidine library was assessed against asynchronous cultures of Plasmodium falciparum parasites replicating within human erythrocytes (Tables 1-3). As the chemical development of robenidine was not discussed in its original publication in 1970^4 and limited structural information is available regarding its mechanism of action,^10 profiling was guided primarily by in vitro potency against the P. falciparum D6 strain cultured in human erythrocytes as described above.
(§2) The following parasite strains were used in this study and obtained through BEI Resources, NIAID, NIH. […] The culture medium used was RPMI-1640, supplemented with 25 mM HEPES buffer, 25 mg/L gentamicin sulfate, 45 mg/L hypoxanthine, 10 mM glucose, 2 mM glutamine, and 0.5% Albumax II (complete medium).^43 Cultures were maintained in a standard low oxygen atmosphere (5% O2, 5% CO2, 90% N2) in an environmental chamber and incubated at 37° C. Cultures were sub-passaged every 3-4 days into a fresh culture flask containing complete media and erythrocytes.
(§3) The aminoguanidine series was assessed for in vitro antiplasmodial activity using the fluorescence-based SYBR Green assay described previously by Smilkstein and co-workers.^38 Compounds were evaluated in quadruplicate in flat-bottomed Costar clear 96-well plates (Model #3585). A two-fold serial dilution of each compound was performed across the columns of the test plates starting with 20 μM and ending with a final untreated column to serve as control wells. Asynchronous parasite infected erythrocytes in growth media were added to each well for a total volume of 100 μL, final hematocrit of 2%, and initial parasitemia of 0.2%. […] Test plates were incubated for 72 hr at 37° C. in an environmental chamber with a controlled low oxygen atmosphere (5% O2, 5% CO2, 90% N2). After the incubation period, 100 μL SYBR Green I dye-detergent solution was added to each well, and the plates were incubated at ambient temperature and atmosphere in the dark for at least one hour. Fluorescence was read at 497 nm excitation and 520 nm emission bands using a Spectramax iD3 plate reader. Fluorescence readings were normalized with respect to the untreated control wells representing normal parasite growth and plotted against the logarithm of drug concentration.

Data set [6] has as its system P. falciparum Dd2. Description: SYBR Green growth inhibition assay, P. falciparum Dd2. In kind it is cell-based, Plasmodium falciparum. Particulars: read-out: IC50 Dd2. The method, then: (§4) In addition to the drug-sensitive P. falciparum D6 strain, the aminoguanidines were assessed against three drug-resistant strains (Tables 1-3).
as §2
(§5) The aminoguanidine series was assessed for in vitro antiplasmodial activity using the fluorescence-based SYBR Green assay described previously by Smilkstein and co-workers.^38 Compounds were evaluated in quadruplicate in flat-bottomed Costar clear 96-well plates (Model #3585). A two-fold serial dilution of each compound was performed across the columns of the test plates starting with 20 μM and ending with a final untreated column to serve as control wells. Asynchronous parasite infected erythrocytes in growth media were added to each well for a total volume of 100 μL, final hematocrit of 2%, and initial parasitemia of 0.2%. The commercial malaria drugs atovaquone and chloroquine were used as control drugs. Test plates were incubated for 72 hr at 37° C. in an environmental chamber with a controlled low oxygen atmosphere (5% O2, 5% CO2, 90% N2). After the incubation period, 100 μL SYBR Green I dye-detergent solution was added to each well, and the plates were incubated at ambient temperature and atmosphere in the dark for at least one hour. Fluorescence was read at 497 nm excitation and 520 nm emission bands using a Spectramax iD3 plate reader. Fluorescence readings were normalized with respect to the untreated control wells representing normal parasite growth and plotted against the logarithm of drug concentration.

The subject of data set [7] is P. falciparum Tm90-C2B. The data set is described as follows: SYBR Green growth inhibition assay, P. falciparum Tm90-C2B. The class given is cell-based, Plasmodium falciparum. Particulars: read-out: IC50 Tm90-C2B. The method, then:
as §4, §2, §5

In data set [8] the test system is P. falciparum A6. Description: SYBR Green growth inhibition assay, P. falciparum A6. Particulars: read-out: IC50 A6. In kind it is cell-based, Plasmodium falciparum. The method, then:
as §4, §2, §5

Data set [9] in a line: HepG2 cytotoxicity assay (resazurin). The class given is cell-based, human. Particulars: human, HepG2 cells; HepG2, 24 hr drug, 24 hr recovery. The method, then:
(§6) In this assay, HepG2 cells were incubated with test compounds for 24 hours, followed by a 24-hour recovery period and subsequent staining to evaluate for cytotoxic effects with resazurin. The ratio of the resulting HepG2 IC50 value to the P. falciparum D6 IC50 value can be considered an ‘in vitro therapeutic index,’ or IVTI.
(§7) Compounds were prepared as 10 mM stock solutions in DMSO. […] HepG2 cells were added to each well of flat bottom 96-well tissue culture plates at an initial density of 2×10^4 cells per well, and an initial volume of 160 μL complete medium per well. After an overnight incubation at 37° C. to adhere the cells to the culture plates, 40 μL drug solutions in complete medium were applied to each well at a final concentration range of 0 to 200 μM across each plate. Drugs were tested in triplicate or quadruplicate. The cells were incubated for 24 hours at 37° C. and 5% CO2 with the drug solutions, which were then aspirated and replaced with 200 μL per well of complete medium for an additional 24 hour incubation under the same conditions. To each well was added 20 μL of resazurin (Alamar Blue) in PBS buffer to a final concentration of 10 μM, and the plates were incubated for 3 hours. Fluorescence was measured at 560 nm excitation and 590 nm emission bands using a Spectramax iD3 plate reader. Fluorescence readings were normalized with respect to the untreated control wells and plotted against the logarithm of drug concentration.

The subject of data set [10] is Plasmodium yoelii. Description: modified 4-day Peters test, murine malaria. The class given is in vivo, mice. Particulars: for P. yoelii ED90 / P. yoelii ED50: oral gavage days 1-4, parasitemia day 5; for P. yoelii NRD (non-recrudescence dose, cure dose): oral, doses up to 25 mg/kg/day, no parasites at day 30. How it is done: In this modified 4-day Peters test,^41 mice were inoculated with parasites from a donor mouse (day 0), and then dosed orally with drugs on each of the subsequent four days (days 1-4). On day 5 of the experiment, the parasitemia for each mouse was determined microscopically by examining methanol-fixed and Giemsa-stained blood smears. The ED50 represents the interpolated dose of a compound at which parasitemia was suppressed to one half that of untreated controls. Similarly, the ED90 represents the dose at which parasitemia is suppressed ten-fold. Mice were considered cured of their infection if no parasites were detected in the blood 30 days from the first drug administration, and the non-recrudescence dose (NRD) represents the lowest dose to achieve a cure.
The in vivo ED50 and ED90 of selected aminoguanidines was measured using a modified 4-day Peters test. Female CF1 mice from Charles River Laboratories were inoculated intravenously with approximately 2.5-5.0×10^4 parasitized erythrocytes (murine malaria P. yoelii, Kenya strain MR4 MRA-428) from a donor mouse (experiment day zero). On the following four days (experiment days 1-4), solutions of the test compounds in PEG-300 (or PEG-300 only for control mice) were administered by oral gavage once daily. […] Parasitemia of each mouse was determined by microscopic examination of Giemsa stained blood smears on day 5. ED50 and ED90 values were assessed by generating dose-response curves relative to untreated controls using Graphpad Prism (v. 8). Mice were considered cured of malarial infection if they maintained 0% parasitemia at experiment day 30. The procedures involved, together with all matters relating to the care, handling, and housing of the animals used in this study, were approved by the Portland VA Medical Center Institutional Animal Care and Use Committee.

Data set [11] deals with P. falciparum strains. The class given is cell-based, Plasmodium falciparum. The method, then: as §1
All aminoguanidines synthesized were also evaluated against three multi-drug resistant P. falciparum strains (Dd2, Tm90-C2B, and A6) and for mammalian cell cytotoxicity.
as §4, §3

Data set [12] has as its system P. falciparum Dd2 infected erythrocytes. Description: SYBR Green assay adapted to 48, 72 or 96 hr incubation. The class given is cell-based. Particulars: Plasmodium falciparum, DD2, Erythrocyte. The method, then: Many drugs have activity dependent on their exposure time in addition to concentration, and antimalarial potency is frequently stage-specific. To determine whether the aminoguanidines acted by a time-dependent mechanism against malaria parasites, the SYBR Green activity assay was adapted to include additional incubation intervals. Two potent aminoguanidines, 16 and 21, were incubated with P. falciparum Dd2 infected erythrocytes for 48, 72, or 96 hours (FIG. 3). […] A shorter incubation time allows for less parasite growth for all drug conditions, producing data with proportionally greater variability or ‘noise.’ Conversely, longer incubation times reduce noise in the resulting data.
Aminoguanidine activity appears to be driven primarily by drug concentration rather than by lengthening drug incubation time.
as §5

Data set [13] relates to human hepatoma derived HepG2 cells. The data set is described as follows: HepG2 cytotoxicity assay (resazurin). The class given is cell-based. How it is done:
as §6, §7

Setting [14] is: Plasmodium falciparum, D6, Erythrocyte, 72 h.
Setting [15] is: Plasmodium falciparum, DD2, 72 h.
[16] abbreviates: Plasmodium falciparum, TM90, 72 h.

Like-named read-outs stand apart in the source and are kept apart here.

Consider `Cl.Cl.Cl.N=C(N)c1cccc(/C=N/N=C(\N)N/N=C/c2cccc(C(=N)N)c2)c1` [CGP 40215A], for which the IC50 is 18000 nM in [1], 20000 nM in [2] and 20000 nM in [3]. The IC50 value entry in [4] is given as “low micromolar”.
As for `N#Cc1cc(/C=N/NC(=N)N/N=C/c2ccc(F)c(C#N)c2)ccc1F` [Compound 1], the IC50 stood at 4 nM in data set [5] (setting [14]); 12 nM in data set [6] (setting [15]); 16 nM in [7] (setting [16]); 14 nM in [8] (Plasmodium falciparum, 72 h). In addition, 8000 nM corresponded to half-maximal inhibition in [9] (IC50 at 24 h). In data set [10] (4-day oral dosing, 0% parasitemia at day 30), the “cure in this model” value is “not curative”. Further, the “P. yoelii ED90” value in data set [10] turned out to be 0.28 mg/kg/day. Moreover, in data set [10], the “P. yoelii NRD (non-recrudescence dose, cure dose)” value was above 25 mg/kg/day. In [11] (in words), the “IC50 values against P. falciparum strains” value is given as “single-digit nanomolar”.
As to `N=C(N/N=C/c1ccc(OC(F)(F)F)cc1)N/N=C/c1ccc(OC(F)(F)F)cc1` [Compound 16], the IC50 was 39 nM in data set [5] (setting [14]); 83 nM in data set [6] (setting [15]); 114 nM in [7] (setting [16]); 52 nM in [8] (Plasmodium falciparum, 72 h); 410 nM in data set [12] (48 h, read-out: IC50 Dd2 48 hr); 195 nM in [12] (72 h, read-out: IC50 Dd2 72 hr). In addition, the IC50 in data set [12] (96 h, read-out: IC50 Dd2 96 hr) is 192 nM. In data set [9], this molecule registered an IC50 at 24 h of 11000 nM. The “P. yoelii ED50” value in data set [10] turned out to be 1.2 mg/kg/day. Further, the “P. yoelii ED90” value in [10] stood at 3.7 mg/kg/day. Further, in data set [10], the “P. yoelii NRD (non-recrudescence dose, cure dose)” value worked out at 12.5 mg/kg/day.
Regarding `N#Cc1cccc(/C=N/NC(=N)N/N=C/c2cccc(C#N)c2)c1` [Compound 21], the IC50 was determined as 7 nM in data set [5] (setting [14]); 20 nM in data set [6] (setting [15]); 31 nM in data set [7] (setting [16]); 24 nM in [8] (Plasmodium falciparum, 72 h); 31 nM in [12] (48 h, read-out: IC50 Dd2 48 hr); 21 nM in data set [12] (72 h, read-out: IC50 Dd2 72 hr). Besides, the IC50 in data set [12] (96 h, read-out: IC50 Dd2 96 hr) was determined as 22 nM. Further, half-maximal inhibition in data set [9] (IC50 at 24 h) required 7000 nM. Moreover, the “effect on Hep2G activity” value in [13] (concentrations as high as 200 μM) was “no measurable effect”. In data set [10], the “P. yoelii ED50” value is 7.1 mg/kg/day. In data set [10], the “P. yoelii ED90” value is on record as 9.4 mg/kg/day. Besides, the “P. yoelii NRD (non-recrudescence dose, cure dose)” value in data set [10] is reported as above 25 mg/kg/day.
Turning to `N=C(NN=Cc1ccc(C(=O)O)cc1)NN=Cc1ccc(C(=O)O)cc1` [Compound 29], the IC50 is above 5000 nM in data set [5] (pan-sensitive strain, 72 hr, asynchronous cultures in human erythrocytes); above 5000 nM in [6] (multi-drug resistant strain, 72 hr); above 5000 nM in data set [7] (multi-drug resistant clinical isolate, also atovaquone resistant, 72 hr); above 5000 nM in data set [8] (mutant line resistant to respiratory antagonists, 72 hr); above 200000 nM in data set [13] (HepG2, 24 hr drug, 24 hr recovery). In [11], the “activity against all tested P. falciparum strains” value was “inactive”.
As to `N=C(N/N=C/c1cccc(-n2cnnn2)c1)N/N=C/c1cccc(-n2cnnn2)c1` [Compound 34], the IC50 in [5] (setting [14]) was 1640 nM; in data set [6] (setting [15]), above 5000 nM; in data set [7] (setting [16]) it was above 5000 nM; in data set [8] (Plasmodium falciparum, 72 h) it was 4790 nM. The IC50 at 24 h in data set [9] stood at 107000 nM. Besides, in data set [11] (D6, Dd2, Tm90-C2B, A6), the “activity against all tested P. falciparum strains” value was “inactive”.
Turning to `N=C(N/N=C/c1ccc(-n2cnnn2)cc1)N/N=C/c1ccc(-n2cnnn2)cc1` [Compound 35], the IC50 in data set [5] (setting [14]) is 838 nM; in data set [6] (setting [15]), above 5000 nM; in data set [7] (setting [16]), above 5000 nM; in [8] (Plasmodium falciparum, 72 h), above 5000 nM. In [9], this molecule displayed an IC50 at 24 h above 200000 nM. The “activity against all tested P. falciparum strains” value in data set [11] (D6, Dd2, Tm90-C2B, A6) was “inactive”.
